Test results as given in patent US8865734B2 (priority 2010, dated 2014).
Values after ≈ are worked out from the molar mass of the structure shown.

Assays:
[1] = test system: in vitro grown Mycobacteria (M. tuberculosis); assay: QUM: Quantification of in vitro grown Mycobacteria (in vitro growth fluorescence assay); format: cell-based; conditions: Mycobacterium tuberculosis; MIC, 80% bacterial growth inhibition; in vitro growth; read-out: QUM
How it was run: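 Mycobacterium tuberculosis grown in vitro was quantified by fluorescence across compound dose responses. MIC is defined as the minimum concentration producing 80% growth inhibition.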

[2] = test system: M. tuberculosis inside the host macrophage; assay: QIM: Quantification of Intracellular Mycobacteria (intracellular growth assay, phenotypic cell-based); conditions: Mycobacterium tuberculosis; MIC, 80% bacterial growth inhibition; intracellular growth; read-out: QIM
How it was run: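 Dose-response testing of intracellular mycobacterial replication in infected macrophages, a cell-based screening format; MIC is defined as the lowest concentration achieving 80% inhibition of bacterial growth.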

| Compound | MIC [1] | MIC [2] |
| --- | --- | --- |
| CCc1nc2ccc(Cl)cn2c1C(=O)NCc1ccc(N2CCCCCC2)cc1 [Compound 221, N-(4-(Azepan-1-yl)benzyl)-6-chloro-2-ethylimidazo[1,2-a]pyridine-3-carboxamide] | < 1 µM | < 1 µM |
| Cc1nc2ccccn2c1C(=O)NCCOCc1ccccc1 [Compound 24, N-(2-(Benzyloxy)ethyl)-2-methylimidazo[1,2-a]pyridine-3-carboxamide] | > 20 µM | > 20 µM |
| O=C(NCc1ccccc1)c1c(-c2ccccc2)nc2ccccn12 [Compound 53, N-Benzyl-2-phenylimidazo[1,2-a]pyridine-3-carboxamide] | > 20 µM | > 20 µM |
| CCc1nc2ccc(Cl)cn2c1C(=O)NCc1ccc(-c2ccc(Cl)cc2C(F)(F)F)cc1 [Compound 129, 6-Chloro-N-((4′-chloro-2′-(trifluoromethyl)biphenyl-4-yl)methyl)-2-ethylimidazo[1,2-a]pyridine-3-carboxamide] | < 1 µM | < 1 µM |
| Cc1nc2ccc(F)cn2c1C(=O)NCc1ccccc1 [Compound 34, N-Benzyl-6-fluoro-2-methylimidazo[1,2-a]pyridine-3-carboxamide] | 1 to 20 µM (≈ 0.283 to 5.67 µg/mL) | 1 to 20 µM (≈ 0.283 to 5.67 µg/mL) |
| Cc1nc2ccccn2c1C(=O)NCC1CCCCC1 [Compound 18, N-(Cyclohexylmethyl)-2-methylimidazo[1,2-a]pyridine-3-carboxamide] | > 20 µM | > 20 µM |
| Cc1nc2cc(Cl)ccn2c1C(=O)NCc1ccccc1 [Compound 28, N-Benzyl-7-chloro-2-methylimidazo[1,2-a]pyridine-3-carboxamide] | > 20 µM | 1 to 20 µM (≈ 0.3 to 6 µg/mL) |
| Cc1nc2ccccn2c1C(=O)NCc1ccc(-c2ccccc2)cc1 [Compound 16, N-(Biphenyl-4-ylmethyl)-2-methylimidazo[1,2-a]pyridine-3-carboxamide] | < 1 µM | < 1 µM |
| Cc1nc2ccccn2c1C(=O)NCC1CCNCC1 [Compound 20, 2-Methyl-N-(piperidin-4-ylmethyl)imidazo[1,2-a]pyridine-3-carboxamide] | > 20 µM | > 20 µM |
| CCc1nc2cc(Cl)ccn2c1C(=O)NCc1ccc(N2CCCC2)cc1 [Compound 212, 7-Chloro-2-ethyl-N-(4-(pyrrolidin-1-yl)benzyl)imidazo[1,2-a]pyridine-3-carboxamide] | < 1 µM | < 1 µM |
| CCc1nc2cc(O)ccn2c1C(=O)NCc1ccc(OC(F)(F)F)cc1 [Compound 105, 2-Ethyl-7-hydroxy-N-(4-(trifluoromethoxy)benzyl)imidazo[1,2-a]pyridine-3-carboxamide] | > 20 µM | > 20 µM |
| CCc1nc2cc(OC)ccn2c1C(=O)NCc1ccc(OC(F)(F)F)cc1 [Compound 104, 2-Ethyl-7-methoxy-N-(4-(trifluoromethoxy)benzyl)imidazo[1,2-a]pyridine-3-carboxamide] | > 20 µM | 1 to 20 µM (≈ 0.393 to 7.87 µg/mL) |
| CCc1nc2cc(Cl)ccn2c1C(=O)NCc1ccc(N2CC=CCC2)cc1 [Compound 213, 7-Chloro-N-(4-(5,6-dihydropyridin-1(2H)-yl)benzyl)-2-ethylimidazo[1,2-a]pyridine-3-carboxamide] | < 1 µM | 1 to 20 µM (≈ 0.395 to 7.9 µg/mL) |
| Cc1nc2cc(C#N)ccn2c1C(=O)NCc1ccccc1 [Compound 35, N-Benzyl-7-cyano-2-methylimidazo[1,2-a]pyridine-3-carboxamide] | > 20 µM | > 20 µM |
| CCc1nc2ccc(Cl)cn2c1C(=O)NCc1ccc(N2CCOCC2)cc1 [Compound 74] | < 1 µM | < 1 µM |
| CCc1nc2cc(Cl)ccn2c1C(=O)NCc1ccc(N2CCN(C(C)C)CC2)cc1 [Compound 110, 7-Chloro-2-ethyl-N-(4-(4-isopropylpiperazin-1-yl)benzyl)imidazo[1,2-a]pyridine-3-carboxamide] | 1 to 20 µM (≈ 0.44 to 8.8 µg/mL) | < 1 µM |
| CCc1nc2cc(Cl)ccn2c1C(=O)NCc1ccc(Nc2ccc(OC(F)(F)F)cc2)cc1 [Compound 199, 7-Chloro-2-ethyl-N-(4-(4-(trifluoromethoxy)phenylamino)benzyl)imidazo[1,2-a]pyridine-3-carboxamide] | < 1 µM | < 1 µM |
| CCCc1nc2ccccn2c1C(=O)NCc1ccc(-c2ccccc2)cc1 [Compound 49, N-(Biphenyl-4-ylmethyl)-2-propylimidazo[1,2-a]pyridine-3-carboxamide] | < 1 µM | < 1 µM |
| CCc1nc2cc(Cl)ccn2c1C(=O)NCc1ccc(Cl)cc1 [Compound 87, 7-Chloro-N-(4-chlorobenzyl)-2-ethylimidazo[1,2-a]pyridine-3-carboxamide] | < 1 µM | < 1 µM |
| Cc1nc2c(F)cccn2c1C(=O)NCc1ccccc1 [Compound 39, N-Benzyl-8-fluoro-2-methylimidazo[1,2-a]pyridine-3-carboxamide] | 1 to 20 µM (≈ 0.283 to 5.67 µg/mL) | 1 to 20 µM (≈ 0.283 to 5.67 µg/mL) |

| Compound | MIC [1] | MIC [2] |
| --- | --- | --- |
| Cc1nc2ccc(C#N)cn2c1C(=O)NCc1ccccc1 [Compound 36, N-Benzyl-6-cyano-2-methylimidazo[1,2-a]pyridine-3-carboxamide] | > 20 µM | > 20 µM |
| CCc1nc2cc(N3CCN(c4ccc(F)cc4)CC3)ccn2c1C(=O)NCc1ccc(N2CCOCC2)cc1 [Compound 329, 2-Ethyl-7-(4-(4-fluorophenyl)piperazin-1-yl)-N-(4-morpholinobenzyl)imidazo[1,2-a]pyridine-3-carboxamide] | > 20 µM | > 20 µM |
| Cc1nc2ccccn2c1C(=O)NCc1ccc(Oc2ccccc2)cc1 [Compound 15, 2-Methyl-N-(4-phenoxybenzyl)imidazo[1,2-a]pyridine-3-carboxamide] | 1 to 20 µM (≈ 0.357 to 7.15 µg/mL) | < 1 µM |
| CCc1nc2cc(Cl)ccn2c1C(=O)NCc1ccc(-c2ccc(Cl)cc2C(F)(F)F)cc1 [Compound 130, 7-Chloro-N-((4′-chloro-2′-(trifluoromethyl)biphenyl-4-yl)methyl)-2-ethylimidazo[1,2-a]pyridine-3-carboxamide] | 1 to 20 µM (≈ 0.492 to 9.85 µg/mL) | < 1 µM |
| CCc1nc2cc(Cl)ccn2c1NC(=O)c1ccc(-c2ccccc2)cc1 [Compound 142, N-(7-Chloro-2-ethylimidazo[1,2-a]pyridin-3-yl)biphenyl-4-carboxamide] | > 20 µM | > 20 µM |
| CCc1nc2ccccn2c1C(=O)NCc1ccc(N(C)Cc2ccc(OC(F)(F)F)cc2)cc1 [Compound 263, 2-Ethyl-N-(4-(methyl(4-(trifluoromethoxy)benzyl)amino)benzyl)imidazo[1,2-a]pyridine-3-carboxamide] | < 1 µM | < 1 µM |
| CCc1nc2ccc(Cl)cn2c1C(=O)NCc1ccc(N2CCC(Oc3ccc(OC(F)(F)F)cc3)CC2)cc1 [Compound 139, 6-Chloro-2-ethyl-N-(4-(4-(4-(trifluoromethoxy)phenoxy)piperidin-1-yl)benzyl)imidazo-[1,2-a]pyridine-3-carboxamide] | < 1 µM | < 1 µM |
| CCc1nc2ccccn2c1C(=O)NCc1ccccc1 [Compound 46, N-Benzyl-2-ethylimidazo[1,2-a]pyridine-3-carboxamide] | 1 to 20 µM (≈ 0.279 to 5.59 µg/mL) | 1 to 20 µM (≈ 0.279 to 5.59 µg/mL) |
| O=C(NCc1ccccc1)c1c(C2CC2)nc2ccccn12 [Compound 50, N-Benzyl-2-cyclopropylimidazo[1,2-a]pyridine-3-carboxamide] | 1 to 20 µM (≈ 0.291 to 5.83 µg/mL) | 1 to 20 µM (≈ 0.291 to 5.83 µg/mL) |
| CCc1nc2ccc(F)cn2c1C(=O)NCc1ccc(OC(F)(F)F)cc1 [Compound 103, 2-Ethyl-6-fluoro-N-(4-(trifluoromethoxy)benzyl)imidazo[1,2-a]pyridine-3-carboxamide] | 1 to 20 µM (≈ 0.381 to 7.63 µg/mL) | < 1 µM |
| Cc1nc2ccccn2c1C(=O)NCCOc1ccccc1 [Compound 23, 2-Methyl-N-(2-phenoxyethyl)imidazo[1,2-a]pyridine-3-carboxamide] | 1 to 20 µM (≈ 0.295 to 5.91 µg/mL) | 1 to 20 µM (≈ 0.295 to 5.91 µg/mL) |
| CCc1nc2ccc(Cl)cn2c1C(=O)NCc1ccc(OCc2ccc(F)cc2)cc1 [Compound 202, 6-Chloro-2-ethyl-N-(4-(4-fluorobenzyloxy)benzyl)imidazo[1,2-a]pyridine-3-carboxamide] | < 1 µM | < 1 µM |
| CCc1nc2cc(Cl)ccn2c1C(=O)NCc1ccc(N2CCC(COC(C)C)CC2)cc1 [Compound 292, 7-Chloro-2-ethyl-N-(4-(4-(isopropoxymethyl)piperidin-1-yl)benzyl)imidazo[1,2-a]pyridine-3-carboxamide] | < 1 µM | < 1 µM |
| CCc1nc2ccc(Cl)cn2c1C(=O)NCc1ccc(Cl)cc1 [Compound 70, 6-Chloro-N-(4-chlorobenzyl)-2-ethylimidazo[1,2-a]pyridine-3-carboxamide] | < 1 µM | < 1 µM |
| CCc1nc2ccc(Cl)cn2c1C(=O)NCC1CCCc2c1cnn2-c1ccc(F)cc1 (stereo not drawn) [Compound 238, 6-Chloro-2-ethyl-N-((1-(4-fluorophenyl)-4,5,6,7-tetrahydro-1H-indazol-4-yl)methyl) imidazo[1,2-a]pyridine-3-carboxamide] | > 20 µM | > 20 µM |
| CCc1nc2ccccn2c1C(=O)NCc1ccc2c(ccn2C)c1 [Compound 56, 2-Ethyl-N-((1-methyl-1H-indol-5-yl)methyl)imidazo[1,2-a]pyridine-3-carboxamide] | < 1 µM | < 1 µM |
| CCc1nc2ccc(C)cn2c1C(=O)NCc1ccc(OC(F)(F)F)cc1 [Compound 65, 2-Ethyl-6-methyl-N-(4-(trifluoromethoxy)benzyl)imidazo[1,2-a]pyridine-3-carboxamide] | < 1 µM | < 1 µM |
| CCc1nc2cc(Cl)ccn2c1C(=O)NCc1ccc(-c2cccc(C#N)c2)cc1 [Compound 128, 7-Chloro-N-((3′-cyanobiphenyl-4-yl)methyl)-2-ethylimidazo[1,2-a]pyridine-3-carboxamide] | > 20 µM | < 1 µM |
| Cc1nc2cc(Cl)ccn2c1C(=O)NCc1ccc(-c2ccccc2)cc1 [Compound 45] | < 1 µM | < 1 µM |
